Consider three molecules from patent US10753947B2, “Methods for screening voltage-gated proteins” (D.E. Shaw Research, LLC, priority 2012, dated 2020).

Molecules are shown by their SMILES. Like-named read-outs stand apart in the source and are kept apart here.

One experiment concerns the target Kv1.2 (Homo sapiens, UniProt P16389). As to conditions: Table 4; read-out: IC50 Kv1.2; cited from earlier work.
The target of a further experiment is KCa3.1 (Homo sapiens, UniProt O15554). As to conditions: Table 4; cited from earlier work.
Sequence of KCa3.1 (O15554 whole entry): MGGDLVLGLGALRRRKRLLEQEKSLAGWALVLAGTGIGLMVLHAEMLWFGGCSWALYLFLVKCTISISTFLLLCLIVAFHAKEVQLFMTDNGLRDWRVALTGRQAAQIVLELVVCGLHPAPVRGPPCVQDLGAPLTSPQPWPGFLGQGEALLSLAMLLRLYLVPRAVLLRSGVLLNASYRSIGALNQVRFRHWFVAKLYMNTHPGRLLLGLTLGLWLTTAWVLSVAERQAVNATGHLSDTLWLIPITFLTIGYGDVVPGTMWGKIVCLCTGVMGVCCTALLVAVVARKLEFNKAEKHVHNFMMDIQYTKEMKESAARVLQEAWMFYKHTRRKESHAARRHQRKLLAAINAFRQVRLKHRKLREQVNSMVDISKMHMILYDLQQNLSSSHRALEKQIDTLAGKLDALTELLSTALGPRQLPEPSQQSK
In another experiment the test system is Nav. Particulars: Table 4; read-out: IC50 Others: Nav; cited from earlier work.
Another experiment has as its target Kv1.3 (Homo sapiens, UniProt P22001). As to conditions: cited from earlier work.
Another experiment deals with Kv1.1 (Homo sapiens, UniProt Q09470). As to conditions: Table 4; read-out: IC50 Kv1.1; cited from earlier work.
Sequence of Kv1.1 (Q09470 whole entry): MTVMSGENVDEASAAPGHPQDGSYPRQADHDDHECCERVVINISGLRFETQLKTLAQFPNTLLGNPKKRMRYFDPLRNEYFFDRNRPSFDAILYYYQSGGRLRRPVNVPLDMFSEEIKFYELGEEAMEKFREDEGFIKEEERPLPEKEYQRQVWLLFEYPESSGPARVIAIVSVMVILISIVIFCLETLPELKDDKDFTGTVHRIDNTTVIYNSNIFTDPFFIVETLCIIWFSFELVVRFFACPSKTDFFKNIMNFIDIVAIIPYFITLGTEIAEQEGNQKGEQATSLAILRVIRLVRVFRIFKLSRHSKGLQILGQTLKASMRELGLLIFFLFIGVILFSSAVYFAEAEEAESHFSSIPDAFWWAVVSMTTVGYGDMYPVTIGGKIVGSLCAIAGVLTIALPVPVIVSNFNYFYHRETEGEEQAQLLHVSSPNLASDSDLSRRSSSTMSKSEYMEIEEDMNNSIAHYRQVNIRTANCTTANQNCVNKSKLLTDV
For another experiment, the target named is Kv1.5 (Homo sapiens, UniProt P22460). As to conditions: Table 4; cited from earlier work.
Sequence of Kv1.5 (P22460 whole entry): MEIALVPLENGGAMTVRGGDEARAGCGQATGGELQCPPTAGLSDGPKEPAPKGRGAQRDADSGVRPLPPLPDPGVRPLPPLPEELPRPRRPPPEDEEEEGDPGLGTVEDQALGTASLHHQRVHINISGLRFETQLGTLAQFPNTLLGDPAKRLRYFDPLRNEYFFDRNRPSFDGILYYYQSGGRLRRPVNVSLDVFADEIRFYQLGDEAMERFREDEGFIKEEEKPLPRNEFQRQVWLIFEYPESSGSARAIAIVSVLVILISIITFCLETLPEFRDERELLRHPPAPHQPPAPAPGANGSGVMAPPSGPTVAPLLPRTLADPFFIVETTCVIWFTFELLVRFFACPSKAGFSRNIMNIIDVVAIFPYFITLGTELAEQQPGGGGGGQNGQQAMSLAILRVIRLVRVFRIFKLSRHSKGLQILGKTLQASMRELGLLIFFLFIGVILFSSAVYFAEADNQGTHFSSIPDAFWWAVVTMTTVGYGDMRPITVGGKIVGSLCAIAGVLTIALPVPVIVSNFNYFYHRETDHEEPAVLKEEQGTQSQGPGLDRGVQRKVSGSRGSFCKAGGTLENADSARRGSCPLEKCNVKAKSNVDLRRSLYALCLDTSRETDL
Experiment [1] deals with T1, Shaker R362S with alpha pore open (R1S) (Drosophila melanogaster, UniProt P08510, DUP563-563/L584V/Q583H/R362S).
T1 construct: expressed in transfected cells; host or cells: Xenopus oocytes injected with cRNA (vector pBSTA)
T1 sequence (P08510 with tags, fused parts or gaps R362S/DUP563-563/Q583H/L584V): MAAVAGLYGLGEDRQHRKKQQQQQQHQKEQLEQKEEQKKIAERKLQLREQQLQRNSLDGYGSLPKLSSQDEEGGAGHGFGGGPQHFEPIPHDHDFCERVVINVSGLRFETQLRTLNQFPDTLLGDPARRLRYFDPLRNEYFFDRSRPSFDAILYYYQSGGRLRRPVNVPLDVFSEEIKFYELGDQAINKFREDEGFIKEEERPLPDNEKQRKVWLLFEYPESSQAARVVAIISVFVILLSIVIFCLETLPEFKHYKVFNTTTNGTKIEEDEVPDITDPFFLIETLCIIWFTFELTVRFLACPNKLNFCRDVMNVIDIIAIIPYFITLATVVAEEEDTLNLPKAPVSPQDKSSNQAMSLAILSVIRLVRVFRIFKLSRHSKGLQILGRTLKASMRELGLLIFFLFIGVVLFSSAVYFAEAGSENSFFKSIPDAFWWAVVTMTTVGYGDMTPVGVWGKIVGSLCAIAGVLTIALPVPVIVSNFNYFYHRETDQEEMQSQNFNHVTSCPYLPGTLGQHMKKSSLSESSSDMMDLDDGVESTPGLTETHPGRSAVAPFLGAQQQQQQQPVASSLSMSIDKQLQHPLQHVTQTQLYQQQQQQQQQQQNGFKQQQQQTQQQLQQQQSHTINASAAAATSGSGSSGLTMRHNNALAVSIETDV
Put plainly: Omega currents (Iω) of Shaker R1S in Xenopus oocytes, two electrode voltage-clamp. The experiment is classed as cell-based. Particulars: 30, 100 and 300 μM La3+; test pulses +60 mV to -300 mV, holding -50 mV. An excerpt: (§1) The coding cDNAs of Shaker “wild-type” (hereinafter WT) base construct (Shaker H4, with intact inactivation), Shaker R362S with alpha pore open (hereinafter R1S) and Shaker with the alpha pore closed by mutation W434F (herein after R1S/W434F) were cloned into a high expression vector pBSTA. The C-terminus of all constructs was tagged with eGFP. Transcripted cRNA was produced using the mMessage mMachine kit (Ambion Inc.).
(§2) Two to four days past injection of cRNA into stage V-VI Xenopus oocytes (NASCO), omega currents (Iω) and currents through the alpha pore (Iα) were recorded with the two electrode voltage-clamp technique making use of a TURBO TEC-05× amplifier (npi electronic GmbH). Currents were filtered at 10 kHz and sampled at 20 kHz. The bath solution contained (in mM): NaCl 96, KCl 2, CaCl2 1, MgCl2 1 and HEPES 5 (pH 7.5). Voltage-recording and current-injecting microelectrodes were filled with 3 M KCl and pulled to have resistances between 0.2 and 1 MΩ (see Stork et al., 2007). The pClamp software package v.10.1 (Molecular Devices, Inc.) was used for data acquisition and analysis.
(§3) Pulses (20 ms) from +60 to ˜300 mV were applied in 20 mV steps at 1 Hz from a holding potential of either −80 mV (WT, R1S/W434F) or ˜50 mV (R1S) (see FIG. 34B) to measure omega currents (Iω) without leak subtraction. […]
Background: Two-electrode voltage clamp is typically applied to oocytes expressing channels or transporters.

Experiment [2] concerns the target T2, Shaker R1S/W434F (alpha pore closed) (Drosophila melanogaster, UniProt P08510, DUP563-563/L584V/Q583H/R362S/W434F).
T2 construct: expressed in transfected cells; host or cells: Xenopus oocytes injected with cRNA (vector pBSTA)
Briefly: Omega currents (Iω) of Shaker R1S/W434F in Xenopus oocytes, two electrode voltage-clamp. Particulars: 100 μM La3+, steps from -80 mV to -200 mV, 20 ms pulses at 1 Hz. The experiment is classed as cell-based.
Source text: as §1, §2, §3

In experiment [3] the test system is Kv2.1 R293S/R294S/R300S (R-1S/R0S/R2S). Put plainly: Omega currents (Iω) of Kv2.1 R-1S/R0S/R2S in Xenopus oocytes, two electrode voltage-clamp. Format: cell-based, human.
Source text: The coding cDNAs of KV2.1 “wild-type” (hereinafter WT) base construct (hKv2.1-m7-c3 is human Kv2.1, residues 1-858, mutated to confer AgTx2 sensitivity and to remove extracellular cysteine residues) was synthesized (Entelchon GmbH) and cloned into the high expression vector pBSTA.
Mutations Kv2.1 R294N (hereinafter R0N), Kv2.1 R300S (hereinafter R2S), Kv2.1 R294C/R300S (hereinafter R0C/R2S), Kv2.1 R293S/R294S (hereinafter R-1S/R0S), Kv2.1 R293S/R294C (hereinafter R-1S/R0C), Kv2.1 R293S/R294S/R300S (hereinafter R-1S/R0S/R2S), Kv2.1 R293S/R294C/R300S (hereinafter R-1S/R0C/R2S) were introduced using the QuikChange® Lightning Site-Directed Mutagenesis Kit (Stratagene) with mutagenic primers according to the manufacturer's instructions. All constructs were checked by restriction site mapping and sequencing.
as §2, with “Transcripted cRNA was produced using the mMessage mMachine kit (Ambion Inc.). Two” for “Two”, “(NASCO) potassium” for “(NASCO), omega currents (Iω) and”
Recording of alpha currents (Iα): Pulses of 100 ms were applied from ˜60 to +60 mV in 10 mV steps at 1 Hz from a holding potential of ˜80 mV to the Kv2.1 channel constructs to measure alpha currents (Iα). Passive leak currents were subtracted online using a P/4 procedure: pClamp software generates a series of scaled-down replica sweeps of the main stimulus waveform. […] The cell's response to the subsweeps is used to calculate the degree of passive cellular current leak. This is then subtracted from acquired data on the associated input signal. Recording of omega currents (Iω): Pulses of 10 ms were applied from a holding potential of ˜80 to ˜300 mV in 20 mV steps at 0.3 Hz to the Kv2.1 channel constructs. Iω were recorded without leak subtraction.
AgTx2 (Sigma Aldrich) was reconstituted according to manufacturer's instructions with 10 mM Tris, pH 7.5, containing 100 mM sodium chloride, 0.1% bovine serum albumin, and 1 mM EDTA. LaCl3 was from Sigma Aldrich; MTSEA, MTSES and MTSET were from Biotium.
La^3+, AgTx2, MTSEA, MTSES and MTSET and were applied to Xenopus oocytes by means of a fast perfusion technique (ScreeningTool as described by Baburin et al., 2006). Origin software v.7.0 (OriginLab Corp.) was employed for data analysis. Inhibition of inward currents was defined as 1−Iω,drug/Iω,control, where Iω,drug is the current response in the presence of a given concentration of lanthanum (La^3+) and Iω, control is the control current through the omega pore. The concentration-inhibition curve was fitted using the Hill equation: Iω,drug/Iω,control=A+[…] where IC50 is the concentration at which Iω inhibition is half-maximal, C is the applied La^3+ concentration, A is the fraction of Iω current that blocked and nH is the Hill coefficient. Data are given as mean±SE (n=number of experiments).

The target in the next experiment is Kv1.4 (Homo sapiens, UniProt P22459). Particulars: Table 4; read-out: IC50 Others: Kv1.4; cited from earlier work.
Sequence of Kv1.4 (P22459 whole entry): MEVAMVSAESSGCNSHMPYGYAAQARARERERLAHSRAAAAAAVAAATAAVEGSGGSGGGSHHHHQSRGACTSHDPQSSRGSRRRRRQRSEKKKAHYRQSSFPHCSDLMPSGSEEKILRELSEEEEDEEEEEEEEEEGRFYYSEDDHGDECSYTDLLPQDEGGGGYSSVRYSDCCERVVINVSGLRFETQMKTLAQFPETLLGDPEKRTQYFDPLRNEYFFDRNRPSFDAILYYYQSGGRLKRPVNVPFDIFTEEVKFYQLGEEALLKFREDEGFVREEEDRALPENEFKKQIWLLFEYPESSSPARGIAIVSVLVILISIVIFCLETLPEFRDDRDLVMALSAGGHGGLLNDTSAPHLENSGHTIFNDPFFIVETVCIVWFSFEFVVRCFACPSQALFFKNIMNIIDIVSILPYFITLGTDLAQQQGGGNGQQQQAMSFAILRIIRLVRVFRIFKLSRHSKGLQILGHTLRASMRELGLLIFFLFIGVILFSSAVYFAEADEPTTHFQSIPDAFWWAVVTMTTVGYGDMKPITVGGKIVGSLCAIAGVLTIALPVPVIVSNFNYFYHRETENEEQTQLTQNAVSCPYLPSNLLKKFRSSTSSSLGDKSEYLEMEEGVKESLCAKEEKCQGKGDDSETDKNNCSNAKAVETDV
In a further experiment the target is T3, Kv3.2 (Homo sapiens, UniProt Q96PR1).
T3 sequence (Q96PR1 1-638): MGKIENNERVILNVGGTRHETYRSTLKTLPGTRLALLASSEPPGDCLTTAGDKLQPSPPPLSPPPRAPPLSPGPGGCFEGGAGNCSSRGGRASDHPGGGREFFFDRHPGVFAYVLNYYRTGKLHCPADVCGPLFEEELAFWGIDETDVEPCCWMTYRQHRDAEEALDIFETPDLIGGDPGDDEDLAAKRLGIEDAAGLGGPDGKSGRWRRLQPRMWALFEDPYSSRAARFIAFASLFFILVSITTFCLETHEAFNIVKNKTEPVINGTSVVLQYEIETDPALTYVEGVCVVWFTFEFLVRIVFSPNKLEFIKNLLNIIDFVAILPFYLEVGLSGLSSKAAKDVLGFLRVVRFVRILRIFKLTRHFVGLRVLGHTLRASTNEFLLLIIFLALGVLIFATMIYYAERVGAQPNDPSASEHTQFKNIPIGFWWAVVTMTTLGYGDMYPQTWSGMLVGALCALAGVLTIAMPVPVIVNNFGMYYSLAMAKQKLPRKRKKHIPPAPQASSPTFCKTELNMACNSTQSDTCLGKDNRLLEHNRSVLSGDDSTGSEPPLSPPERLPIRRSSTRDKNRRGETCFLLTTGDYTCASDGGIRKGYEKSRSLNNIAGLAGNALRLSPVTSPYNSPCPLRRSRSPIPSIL
Particulars: Table 4; read-out: IC50 Others: Kv3.2; cited from earlier work.

[4] abbreviates: Table 2, modulating Kv1.3 ion conductance, read-out: IC50.

What is called IC50 is the concentration that gives 50% inhibition.

Sequence of Kv1.3 (P22001 whole entry): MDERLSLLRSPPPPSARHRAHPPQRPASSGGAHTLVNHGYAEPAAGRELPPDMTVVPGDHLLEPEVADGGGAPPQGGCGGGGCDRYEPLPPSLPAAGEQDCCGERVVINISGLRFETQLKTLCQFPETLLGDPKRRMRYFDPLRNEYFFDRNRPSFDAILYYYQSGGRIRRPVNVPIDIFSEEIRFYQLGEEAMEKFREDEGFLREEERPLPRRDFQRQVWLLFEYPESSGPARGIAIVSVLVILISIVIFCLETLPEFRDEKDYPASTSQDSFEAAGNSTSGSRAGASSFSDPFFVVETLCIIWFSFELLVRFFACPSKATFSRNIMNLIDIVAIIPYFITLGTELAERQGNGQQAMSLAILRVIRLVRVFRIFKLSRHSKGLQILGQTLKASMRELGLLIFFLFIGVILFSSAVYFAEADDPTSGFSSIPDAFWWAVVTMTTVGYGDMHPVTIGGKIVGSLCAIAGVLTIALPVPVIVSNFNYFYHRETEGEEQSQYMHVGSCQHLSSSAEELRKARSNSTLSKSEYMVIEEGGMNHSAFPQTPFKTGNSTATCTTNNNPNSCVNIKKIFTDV
Sequence of Kv1.2 (P16389 whole entry): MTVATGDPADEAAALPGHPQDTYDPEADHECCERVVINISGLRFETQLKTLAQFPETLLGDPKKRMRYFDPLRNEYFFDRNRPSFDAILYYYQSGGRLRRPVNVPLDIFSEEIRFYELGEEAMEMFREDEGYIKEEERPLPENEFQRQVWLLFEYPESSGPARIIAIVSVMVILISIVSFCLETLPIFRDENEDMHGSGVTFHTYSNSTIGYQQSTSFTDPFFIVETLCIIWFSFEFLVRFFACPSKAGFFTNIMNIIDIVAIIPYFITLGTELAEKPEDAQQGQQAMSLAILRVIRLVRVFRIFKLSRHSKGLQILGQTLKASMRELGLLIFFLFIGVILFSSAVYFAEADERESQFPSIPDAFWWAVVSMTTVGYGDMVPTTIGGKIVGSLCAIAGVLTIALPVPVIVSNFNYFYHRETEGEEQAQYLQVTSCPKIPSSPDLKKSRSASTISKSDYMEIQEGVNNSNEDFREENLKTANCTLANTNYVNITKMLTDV
T2 sequence (P08510 with tags, fused parts or gaps R362S/W434F/DUP563-563/Q583H/L584V): as the sequence (P08510 with tags, fused parts or gaps R362S/DUP563-563/Q583H/L584V) above, with W434F counted along it

For `CCCCC/N=c1\ccn(Cc2ccccc2)c2ccccc12` [CP-339818], the half-inhibitory concentration (IC50) at Kv1.2 is 14000 nM; on KCa3.1 it was more than 500000 nM; in the experiment with Nav it was 10 nM; on Kv1.3 (setting [4]), 150 nM; at Kv1.3 (Table 4, read-out: IC50 Kv1.3) it was 230 nM; at Kv1.1 it was 62000 nM. Further, the IC50 on Kv1.5 is 19000 nM.
Consider `O.O.O.O.O.O.O.[Cl-].[Cl-].[Cl-].[La+3]` [La3+, Lanthanum(III) chloride heptahydrate], for which the “Block of omega current (Iω) of R1S Shaker” value in experiment [1] is listed as “blocked in a concentration-dependent manner”. The “Block of Iω during the first pulse” value in experiment [2] was 31.8±3.6%. Besides, the “Block of omega currents at steady state” value in [2] (5 oocytes) was 51.5±5.9%. Moreover, the “Block of inward currents at negative potentials (Iω)” value in [3] (30 μM to 10 mM La3+) is reported as “blocked”. Further, the “Hill coefficient nH” value in [3] (inward currents after 5 ms at -300 mV, Hill fit) was determined as 0.8±0.1.
Regarding `COc1ccc(CCCN2CCC(COC(c3ccccc3)c3ccccc3)CC2)cc1` [UK-78282], the IC50 at Kv1.2 is 2900 nM; at KCa3.1, more than 30000 nM; at Kv1.3 (setting [4]), 200 nM; at Kv1.1, 22000 nM; on Kv1.4, 300 nM; on Kv3.2, 127000 nM. Moreover, at Kv1.5, the IC50 is 70 nM.
